Source: patent US12428386B2, “Sphingosine 1 phosphate receptor modulators” (RECEPTOS LLC, priority 2020, dated 2025)

Assays:
S1P1 = target: T1, S1P1 (Homo sapiens, UniProt P21453); experiment: [35S]-GTPγS binding assay, CHO-S1P receptor membranes, S1P1; format: biochemical; conditions: CHO-S1P receptor membrane; for Emax: control S1P, read-out: S1P1 % Efficacy
T1 construct: expressed in transfected cells; host or cells: CHO cell membranes
Procedure: (§1) Binding assays for [^35S]-GTPγS were performed in 96-well non-binding surface plates with a final volume of 200 μL. The test compounds were serial diluted in DMSO and added to assay plates using a Tecan D300E digital printer with a total volume of 0.4 μL. The control sphingosine-1-phosphate (S1P) was prepared separately by preparing a 400 μM stock solution from a 100 nmol pellet of S1P in 10 mM Na2CO3 with 2% β-cyclodextrin. The serial dilution of S1P was done using complete assay buffer (20 mM HEPES, 10 mM MgCl2, 100 mM NaCl, 1 mM EDTA, 0.1% fatty acid free bovine serum albumin [BSA], and 30 μg/mL saponin, pH7.4) and transferred to wells already containing 0.4 μL DMSO. All the wells were then loaded to a total volume of 40 μL of complete assay buffer, except the non-specific binding (NSB) wells. For NSB wells, 40 μL/well of 50 μM GTPγS (Sigma Aldrich, cat# G8634, St. Louis, MO) was added to wells containing 0.4 μL of DMSO. The assay was started by the addition of 120 μL/well of CHO-S1P receptor membrane solution containing 40 μg/mL of membrane protein, 16.67 μM guanosine diphosphate (GDP; Sigma Aldrich, cat# G7127, St. Louis, MO), and 2.5 mg/mL of WGA PVT SPA beads in complete buffer. Assay plates were then sealed and incubated at room temperature with gentle agitation for 30 minutes. Next, 40 μL/well of 1 nM of [^35S]-GTPγS (PerkinElmer, cat# NEG030×250UC, Waltham, MA) in basic assay buffer (20 mM HEPES, 10 mM MgCl2, 100 mM NaCl, and 1 mM EDTA, pH7.4) was added to the assay plates to yield a final concentration of 200 pM and the plates were further incubated for 40 minutes at room temperature with gentle agitation. The assay was terminated by centrifugation of the plates at 1000 rpm for 3 minutes using an Eppendorf 5810R centrifuge (Eppendorf, Hamburg, Germany) and G protein bound radioactivity was quantitated using a MicroBeta2 microplate scintillation counter (PerkinElmer, Waltham, MA).

S1P5 = target: T2, S1P5 (Homo sapiens, UniProt Q9H228); experiment: [35S]-GTPγS binding assay, CHO-S1P receptor membranes, S1P5; format: biochemical; conditions: CHO-S1P receptor membrane; for Emax: control S1P, read-out: S1P5 % Efficacy
T2 construct: expressed in transfected cells; host or cells: CHO cell membranes
Procedure: as §1

T2 sequence (Q9H228 whole entry, species assumed): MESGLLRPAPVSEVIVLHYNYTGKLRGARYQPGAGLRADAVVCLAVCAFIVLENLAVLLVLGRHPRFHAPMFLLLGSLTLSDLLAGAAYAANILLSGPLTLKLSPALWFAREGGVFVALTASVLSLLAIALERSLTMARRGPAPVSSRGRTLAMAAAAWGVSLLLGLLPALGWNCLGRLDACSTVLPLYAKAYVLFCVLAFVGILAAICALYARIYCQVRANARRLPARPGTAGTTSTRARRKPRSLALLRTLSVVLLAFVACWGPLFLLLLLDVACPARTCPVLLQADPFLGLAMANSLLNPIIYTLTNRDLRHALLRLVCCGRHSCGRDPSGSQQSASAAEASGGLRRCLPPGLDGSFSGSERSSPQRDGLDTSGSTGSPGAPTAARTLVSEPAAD
T1 sequence (P21453 whole entry, species assumed): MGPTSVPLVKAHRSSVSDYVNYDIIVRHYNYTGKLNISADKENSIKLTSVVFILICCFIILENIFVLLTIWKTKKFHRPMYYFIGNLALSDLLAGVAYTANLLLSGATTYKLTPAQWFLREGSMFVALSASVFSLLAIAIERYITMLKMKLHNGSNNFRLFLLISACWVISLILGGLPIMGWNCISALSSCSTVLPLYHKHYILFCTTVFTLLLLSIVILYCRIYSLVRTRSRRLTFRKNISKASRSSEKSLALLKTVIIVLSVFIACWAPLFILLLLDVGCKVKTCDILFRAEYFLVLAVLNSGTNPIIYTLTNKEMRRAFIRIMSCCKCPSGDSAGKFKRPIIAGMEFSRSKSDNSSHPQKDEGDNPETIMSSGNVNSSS

EC50 (S1P1) | Emax (S1P1) | EC50 (S1P5) | Emax (S1P5) | SMILES
32 nM | 92% | 270 nM | 68% | CCOC1=CCc2c1cccc2-c1noc(-c2ccc(OC(C)C)c(C#N)c2)n1 [compound 3, 5-(3-(3-ethoxy-1H-inden-7-yl)-1,2,4-oxadiazol-5-yl)-2-isopropoxy-benzonitrile]
7 nM | 86% | 151 nM | 79% | CC(C)OC1=CCc2c1cccc2-c1noc(-c2ccc(OC(C)C)c(C#N)c2)n1 [compound 4, 2-isopropoxy-5-(3-(3-isopropoxy-1H-inden-7-yl)-1,2,4-oxadiazol-5-yl)-benzonitrile]
18 nM | 87% | 148 nM | 33% | COC1=CCc2c1cccc2-c1noc(-c2ccc(OC(C)C)c(C#N)c2)n1 [compound 2, 2-isopropoxy-5-(3-(3-methoxy-1H-inden-7-yl)-1,2,4-oxadiazolyl)benzonitrile]
